Assay results taken from patent publication US5256698A, “Treatment of psychosis using cyclohexyl-phenyl-lower alkyl amine derivatives” (University of Iowa Research Foundation, priority 1990, dated 1993).
Entries after “also recorded” stand apart in the source; their conditions may differ.

How the values were obtained:
sigma binding sites [1] = assay: sigma binding site inhibition: displacement of radiolabelled haldol; conditions: for binding to the sigma binding site (in words): hydrochloride
Protocol: (§1) The compound prepared in Example 1 was tested for sigma binding site inhibition in comparison with Haldol, a knows selective receptor for sigma binding sites. In particular, a radioligand of haldol was bound to sigma binding sites to provide radio labeled ligands at sigma binding receptor sites of tissue. In the tests, the compound of Example 1 was then added to the cell system to see how successfully it displaced the radioactive ligands at the sigma binding site. The higher the percentage of radio ligand displaced, the greater the percentage of specific binding at the sigma sites.
The compound of Example 2 was tested in a similar fashion to that previously described in order to test comparison with Haldol or sigma binding site activity.

Dopamine 1 = Dopamine 1 binding, [^3 H]-SCH 23390; conditions: for Percent Inhibition: Average, N = 2; for Percent Binding: Table 6 (head from Table 5)
Text: (§2) Any number for a psychoactive drug over 50% is considered highly significant. By way of example, the following Table 2 illustrates a percentage of specific binding for certain known psychoactives capable of binding at other binding sites which are responsible for the undesirable side effects often associated with psychoactive agents.

Dopamine 2 = Dopamine 2 binding, [^3 H]-Sulpiride; conditions: for Percent Inhibition: Average, N = 2; for Percent Binding: Table 6 (head from Table 5)
Text: as §2

PCP = PCP site binding, [^3 H]-TCP; conditions: for Percent Inhibition / Percent Binding: [^3 H]-TCP; for Percent Inhibition: Average, N = 2; for Percent Binding: Table 6 (head from Table 5)
Text: as §2
[^3 HTCP is a PCP derivative which selectively labels PCP site; PCP i

dopaminergic receptors = assay: binding at dopaminergic receptors (summary of dopamine 1 and 2 binding)
Text: as §2

sigma binding sites [2] = conditions: background; cited from earlier work
sigma = sigma binding capability, [^3 H]-DTG; conditions: for Percent Binding: [^3 H]-DTG
Protocol: as §1, with “In particular, a radioligand of haldol was bound to sigma binding sites to provide radio labeled ligands at sigma binding receptor sites of tissue.” left out
The following table illustrates testing of sigma binding capability of bromhexine. Again, the test protocol and procedure were as previously described.

Which results are given for `CCN(Cc1ccccc1)C1CCCCC1.Cl` [Example 1, N-cyclohexyl-N-ethylbenzylamine hydrochloride]?
% Displaced Haldol (sigma binding sites [1]; Table 1, 10^-5 M, 10 µM): 96.0%; % Sigma Site Binding (sigma binding sites [1]; Table 1, 10^-5 M, 10 µM): 4.0%; VERIFICATION % Displaced Haldol (sigma binding sites [1]; Table 1, 10^-5 M, 10 µM): 86.7%; VERIFICATION % Sigma Site Binding (sigma binding sites [1]; Table 1, 10^-5 M, 10 µM): 13.3%; % Displaced Haldol (sigma binding sites [1]; Table 1, 10^-7 M, 0.1 µM): 99.1%; % Sigma Site Binding (sigma binding sites [1]; Table 1, 10^-7 M, 0.1 µM): 0.9%; VERIFICATION % Displaced Haldol (sigma binding sites [1]; Table 1, 10^-7 M, 0.1 µM): 61.1%; VERIFICATION % Sigma Site Binding (sigma binding sites [1]; Table 1, 10^-7 M, 0.1 µM): 38.9%; % Displaced Haldol (sigma binding sites [1]; Table 1, 10^-9 M, 0.001 µM): 27.5%; % Sigma Site Binding (sigma binding sites [1]; Table 1, 10^-9 M, 0.001 µM): 72.5%; VERIFICATION % Displaced Haldol (sigma binding sites [1]; Table 1, 10^-9 M, 0.001 µM): 22.5%; VERIFICATION % Sigma Site Binding (sigma binding sites [1]; Table 1, 10^-9 M, 0.001 µM): 77.5%; binding to the sigma binding site (in words) (sigma binding sites [1]): selectively binds to the sigma binding site; binding to the sigma binding site (in words) (sigma binding sites [1]; listed as N-cyclohexyl-N-ethyl 2-benzylamine): high degree of active sigma binding capability; Percent Inhibition (Dopamine 1; 10^-5 M): 10.7%; Percent Inhibition (Dopamine 1; 10^-7 M): 5.9%; Percent Inhibition (Dopamine 1; 10^-9 M): 3.2%; Percent Inhibition (Dopamine 2; 10^-5 M): 14.8%; Percent Inhibition (Dopamine 2; 10^-7 M): -1.5%; Percent Inhibition (Dopamine 2; 10^-9 M): -1.4%; Percent Inhibition (PCP; 10^-5 M): 25.1%; Percent Inhibition (PCP; 10^-7 M): 7.1%; Percent Inhibition (PCP; 10^-9 M): 9.4%; binding to dopaminergic sites (in words) (dopaminergic receptors): excluded from binding at dopaminergic receptors

Which “% Displaced Haldol” value (sigma binding sites [1]; Table 3, 10^-5 M, 10 µM) does the source give for `CCN(CCc1ccccc1)C1CCCCC1.Cl` [Example 2, N-cyclohexyl-N-ethyl 2-phenylethylamine hydrochloride] here?
The value was 107.6%.

What about the “% Sigma Site Binding” value (sigma binding sites [1]; Table 3, 10^-5 M, 10 µM) of the same compound?
The value was -7.6%.

What about the “VERIFICATION % Displaced Haldol” value (sigma binding sites [1]; Table 3, 10^-5 M, 10 µM) of the same compound?
The value was 91.7%.

And the “VERIFICATION % Sigma Site Binding” value (sigma binding sites [1]; Table 3, 10^-5 M, 10 µM)?
Its value is 8.3%.

What about the “% Displaced Haldol” value (sigma binding sites [1]; Table 3, 10^-7 M, 0.1 µM) of the same compound?
Its value is 84.7%.

What about the “% Sigma Site Binding” value (sigma binding sites [1]; Table 3, 10^-7 M, 0.1 µM) of the same compound?
The value was 15.3%.

And the “VERIFICATION % Displaced Haldol” value (sigma binding sites [1]; Table 3, 10^-7 M, 0.1 µM)?
The value was 69.0%.

What about the “VERIFICATION % Sigma Site Binding” value (sigma binding sites [1]; Table 3, 10^-7 M, 0.1 µM) of the same compound?
Its value is 31.0%.

And the “% Displaced Haldol” value (sigma binding sites [1]; Table 3, 10^-9 M, 0.001 µM)?
Its value is 43.2%.

What about the “% Sigma Site Binding” value (sigma binding sites [1]; Table 3, 10^-9 M, 0.001 µM) of the same compound?
Its value is 56.8%.

And the “VERIFICATION % Displaced Haldol” value (sigma binding sites [1]; Table 3, 10^-9 M, 0.001 µM)?
Its value is 33.9%.

What about the “VERIFICATION % Sigma Site Binding” value (sigma binding sites [1]; Table 3, 10^-9 M, 0.001 µM) of the same compound?
Its value is 66.1%.

What about the “binding to the sigma binding site (in words)” value (sigma binding sites [1]) of the same compound?
Its value is “binds selectively to the sigma and PCP binding sites”.

And the “binding to the sigma binding site (in words)” value (sigma binding sites [1]; listed as N-cyclohexyl-N-ethyl 2-phenylethylamine)?
The value was “high degree of active sigma binding capability”.

And the “Percent Inhibition” value (Dopamine 2; 10^-5 M)?
The value was 47.2%.

What about the “Percent Inhibition” value (Dopamine 2; 10^-7 M) of the same compound?
The value was 7.8%.

And the “Percent Inhibition” value (Dopamine 2; 10^-9 M)?
Its value is 5.9%.

What about the “binding to PCP sites (in words)” value (PCP) of the same compound?
Its value is “binds selectively to the sigma and PCP binding sites”.

And the “Percent Inhibition” value (PCP; 10^-5 M)?
The value was 87.7%.

What about the “Percent Inhibition” value (PCP; 10^-7 M) of the same compound?
Its value is 21.0%.

And the “Percent Inhibition” value (PCP; 10^-9 M)?
Its value is 11.1%.

What about the “binding to dopaminergic sites (in words)” value (dopaminergic receptors) of the same compound?
Its value is “only very weakly binds to the dopaminergic site”.

With `c1ccc(C2(N3CCCCC3)CCCCC2)cc1` [PCP, phencyclidine] as the compound, how does the “affinity for sigma binding sites (in words)” value (sigma binding sites [2]) read?
Its value is “also bind at this site”.

Which “Percent Binding” value (sigma; 10^-5 M, 10 µM) does the source give for `CN(Cc1cc(Br)cc(Br)c1N)C1CCCCC1` [bromhexine, reference compound] here?
Its value is 90.8%.

What about the “Percent Binding” value (sigma; 10^-7 M, 0.1 µM) of the same compound?
The value was 45.1%.

What about the “Percent Binding” value (sigma; 10^-9 M, 0.001 µM) of the same compound?
The value was 24.8%.

And the “sigma binding capability (in words)” value (sigma; bromhexine)?
The value was “bind to the sigma site; also recorded: high degree of active sigma binding capability”.

And the “Percent Binding” value (Dopamine 1; 10^-5 M, 10 µM)?
The value was 17.5%.

And the “Percent Binding” value (Dopamine 1; 10^-7 M, 0.1 µM)?
Its value is 10.8%.

What about the “Percent Binding” value (Dopamine 1; 10^-9 M, 0.001 µM) of the same compound?
Its value is 3.9%.

And the “Percent Binding” value (Dopamine 2; 10^-5 M, 10 µM)?
Its value is 11.9%.

What about the “Percent Binding” value (Dopamine 2; 10^-7 M, 0.1 µM) of the same compound?
The value was 4.5%.

And the “Percent Binding” value (Dopamine 2; 10^-9 M, 0.001 µM)?
The value was 5.6%.

What about the “binding to PCP sites (in words)” value (PCP) of the same compound?
Its value is “negligible”.

What about the “Percent Binding” value (PCP; 10^-5 M, 10 µM) of the same compound?
Its value is -2.5%.

And the “Percent Binding” value (PCP; 10^-7 M, 0.1 µM)?
The value was 0.2%.

What about the “Percent Binding” value (PCP; 10^-9 M, 0.001 µM) of the same compound?
The value was -13.6%.

What about the “binding to dopaminergic sites (in words)” value (dopaminergic receptors) of the same compound?
The value was “negligible”.

With `O=C(CCCN1CCC(O)(c2ccc(Cl)cc2)CC1)c1ccc(F)cc1` [haloperidol] as the compound, how does the “affinity for sigma binding sites (in words)” value (sigma binding sites [2]) read?
The value was “high affinity”.
